# Biological target: AMPK
# Experiment: AMPK activation, enzyme-linked immunosorbent assay
# Format: biochemical
# Conditions: Table 2, ELISA
# Method: Compounds 1-54 were assayed for their ability to activate AMPK using an enzyme-linked immunosorbent assay.
# Compounds 55-62 of Table 1 were assayed for their ability to activate AMPK using an enzyme-linked immunosorbent assay.
# Compounds 63-66 of Table 1 were assayed for their ability to activate AMPK using an enzyme-linked immunosorbent assay.
# Compounds 67-71 of Table 1 were assayed for their ability to activate AMPK using an enzyme-linked immunosorbent assay.
# Compound 72 of Table 1 was assayed for its ability to activate AMPK using an enzyme-linked immunosorbent assay.
row,EC50 [nM],Compound
1,10000 to 50000,"O=C(NC1CCN(Cc2ccccc2)CC1)c1ccc2[nH]c3c(c2c1)CN(C(=O)OCc1ccccc1)CC3 [Compound 2, benzyl 8-(1-(4-benzyl)piperidin-4-ylcarbamoyl)-3,4-dihydro-1H-pyrido[4,3-b]indole-2(5H)-carboxylate]"
2,10000 to 50000,"N#Cc1ccc(CN2CCC(NC(=O)c3ccc4[nH]c5c(c4c3)CN(Cc3ccc(C(N)=O)cc3)CC5)CC2)cc1 [Compound 44, 2-(4-carbamoylbenzyl)-N-(1-(4-cyanobenzyl)piperidin-4-yl)-2,3,4,5-tetrahydro-1H-pyrido[4,3-b]indole-8-carboxamide]"
3,< 500,"O=C(NC1CCN(Cc2cccnc2)CC1)c1ccc2[nH]c3c(c2c1)CN(Cc1ccc(C(F)(F)F)cc1)CC3 [Compound 11, N-(1-(pyridin-3-ylmethyl)piperidin-4-yl)-2-(4-(trifluoromethyl)benzyl)-2,3,4,5-tetrahydro-1H-pyrido[4,3-b]indole-8-carboxamide]"
4,5000 to 10000,"O=C(NC1CCN(Cc2ccncc2)CC1)c1ccc2[nH]c3c(c2c1)CN(Cc1ccccc1)CC3 [Compound 7, 2-benzyl-N-(1-(pyridin-4-ylmethyl)piperidin-4-yl)-2,3,4,5-tetrahydro-1H-pyrido[4,3-b]indole-8-carboxamide]"
5,1000 to 5000,"O=C(NC1CCN(Cc2ccc(C(F)(F)F)cc2)CC1)c1ccc2[nH]c3c(c2c1)CN(Cc1ccccc1)CC3 [Compound 5, 2-benzyl-N-(1-(4-trifluoromethylbenzyl)piperidin-4-yl)-2,3,4,5-tetrahydro-1H-pyrido [4,3-b]indole-8-carboxamide]"
6,1000 to 5000,"N#Cc1ccc(CN2CCC(NC(=O)c3ccc4[nH]c5c(c4c3)CN(C(=O)OCc3ccccc3)CC5)CC2)cc1 [Compound 1, benzyl 8-(1-(4-cyanobenzyl)piperidin-4-ylcarbamoyl)-3,4-dihydro-1H-pyrido[4,3-b]indole-2(5H)-carboxylate]"

# Further lines, the molecule ahead of its results:
row,Compound,EC50 [nM]
1,"O=C(NC1CCN(Cc2ccc(C(F)(F)F)cc2)CC1)c1ccc2[nH]c3c(c2c1)CN(Cc1ccc(C(F)(F)F)cc1)CC3 [Compound 13, N-(1-(4-trifluoromethyl-benzyl)piperidin-4-yl)-2-(4-(trifluoromethyl)benzyl)-2,3,4,5-tetrahydro-1H-pyrido[4,3-b]indole-8-carboxamide]",< 500
2,"O=C(NC1CCN(C(=O)c2ccc(F)cc2)CC1)c1ccc2[nH]c3c(c2c1)CN(c1ccc(F)cc1)CC3 [Compound 39, N-(1-(4-fluorobenzoyl)piperidin-4-yl)-2-(4-fluorophenyl)-2,3,4,5-tetrahydro-1H-pyrido [4,3-b]indole-8-carboxamide]",10000 to 50000
3,"O=C(NC1CCN(Cc2ccc(C(F)(F)F)cc2)CC1)c1ccc2[nH]c3c(c2c1)CN(Cc1ccc(F)cc1)CC3 [Compound 10, N-(1-(4-trifluoromethyl-benzyl)piperidin-4-yl)-2-(4-fluorobenzyl)-2,3,4,5-tetrahydro-1H-pyrido[4,3-b]indole-8-carboxamide]",500 to 1000
4,"CC(=O)n1c2c(c3cc(C(=O)NC4CCN(Cc5cccnc5)CC4)ccc31)CN(Cc1ccc(C(F)(F)F)cc1)CC2 [Compound 20, 5-acetyl-N-(1-(pyridin-3-ylmethyl)piperidin-4-yl)-2-(4-(trifluoromethyl)benzyl)-2,3,4,5-tetrahydro-1H-pyrido[4,3-b]indole-8-carboxamide]",1000 to 5000
5,"O=C(NC1CCN(Cc2cocn2)CC1)c1ccc2[nH]c3c(c2c1)CN(Cc1ccc(C(F)(F)F)cc1)CC3 [Compound 54, N-(1-(oxazol-4-ylmethyl)piperidin-4-yl)-2-(4-(trifluoromethyl)benzyl)-2,3,4,5-tetrahydro-1H-pyrido[4,3-b]indole-8-carboxamide]",< 500
6,O=C(NC1CCN(S(=O)(=O)c2cccnc2)CC1)c1ccc2[nH]c3c(c2c1)CN(Cc1ccc(C(F)(F)F)cc1)CC3 [Compound 22],500 to 1000
7,"O=C(NC1CCN(Cc2ccc(C(F)(F)F)cc2)CC1)c1ccc2[nH]c3c(c2c1)CN(c1ccc(F)cc1)CC3 [Compound 37, 2-(4-fluorophenyl)-N-(1-(4-(trifluoromethyl)benzyl)piperidin-4-yl)-2,3,4,5-tetrahydro-1H-pyrido[4,3-b] indole-8-carboxamide]",5000 to 10000
8,"N#Cc1ccc(S(=O)(=O)N2CCC(NC(=O)c3ccc4[nH]c5c(c4c3)CN(Cc3ccc(C(F)(F)F)cc3)CC5)CC2)cc1 [Compound 21, N-(1-(4-cyanophenyl-sulfonyl)piperidin-4-yl)-2-(4-(trifluoromethyl)benzyl)-2,3,4,5-tetrahydro-1H-pyrido[4,3-b]indole-8-carboxamide]",500 to 1000

# Same assay, conditions: Table 3, ELISA
row,EC50 [nM],Compound
1,< 100,"O=C(NC1CCN(Cc2ccc(C(F)(F)F)cc2)CC1)c1ccc(CN2CCN(Cc3ccccc3)CC2)cc1 [Compound 62, 4-((4-benzylpiperazin-1-yl)methyl)-N-(1-(4-trifluoromethylbenzyl)piperidin-4-yl) benzamide]"

# Same assay, conditions: Table 4, ELISA
row,EC50 [nM],Compound
1,< 500,"O=C(NC1CCN(Cc2ccccc2)CC1)c1ccc2cc(OC3CCN(Cc4ccc(C(F)(F)F)cc4)CC3)ccc2c1 [Compound 63, N-(1-benzylpiperidin-4-yl)-6-(1-(4-(trifluoro-methyl)benzyl)piperidin-4-yloxy)-2-naphthamide]"

# Reference: US8895578B2, “Carboxamide, sulfonamide and amine compounds and methods for using the same” (Rigel Pharmaceuticals, Inc., priority 2007, dated 2014)
